Laboratory results reported in the C3SDB collision cross section collection.
Values belong to the molecule of their own block, whether it stands above or below them.

What was measured:
[1] = [M+H]+; instrument: TW; Major Mix IMS/Tof Calibration Kit (Waters)
[2] = instrument: DT, single field, calibrated with Agilent tune mix (Agilent)
[3] = instrument: TW, calibrated with phosphatidylcholines (ESI+) and phosphatidylethanolamines (ESI-)
[4] = [M+H]+; instrument: DT; stepped-field

Compound: CC[C@@H](c1cccc(O)c1)[C@@H](C)CN(C)C [Tapentadol]
collision cross section (N2) [1]: 152.1 Å²

Compound: CC(C(=O)O)c1ccc(C(=O)c2ccccc2)s1 (centres undefined) [Tiaprofenic acid]
collision cross section (N2) [1]: 155.1 Å²

Compound: Cc1cnc(C(=O)NCCc2ccc(S(=O)(=O)NC(=O)NC3CCCCC3)cc2)cn1 [Glipizide]
collision cross section (N2) [1]: 198.9 Å²

Compound: CC1Cc2ccccc2N1NC(=O)c1ccc(Cl)c(S(N)(=O)=O)c1 (centres undefined) [Indapamide]
collision cross section (N2) [1]: 185.6 Å²

Compound: COC(=O)C(c1ccccc1)C1CCCCN1 (centres undefined) [Methylphenidate]
collision cross section (N2) [1]: 154.2 Å²

Compound: c1ccc(C(c2ccccc2)C2CCCCN2)cc1 (centres undefined) [Desoxypipradrol]
collision cross section (N2) [1]: 164.1 Å²

Compound: CC(CN(C)C)CN1c2ccccc2Sc2ccccc21 (centres undefined) [Alimemazine]
collision cross section (N2) [1]: 166.8 Å²

Compound: Cc1cnc(NC(=O)C2=C(O)c3ccccc3S(=O)(=O)N2C)s1 [Meloxicam]
collision cross section (N2) [1]: 173.9 Å²

Compound: Cc1ncc2n1-c1ccc(Cl)cc1C(c1ccccc1F)=NC2 [Midazolam]
collision cross section (N2) [1]: 172.8 Å²

Compound: CNC(=O)C(CCN1CCC(O)(c2ccc(Cl)cc2)CC1)(c1ccccc1)c1ccccc1 [Loperamide-M Desmethyl]
collision cross section (N2) [1]: 218.7 Å²

Compound: CNCC[C@H](Oc1cccc2ccccc12)c1cccs1 [Duloxetine]
collision cross section (N2) [1]: 171 Å²

Compound: N#Cc1ccc2c(c1)N(CCCN1CCC(O)CC1)c1ccccc1S2 [Periciazine]
collision cross section (N2) [1]: 186.4 Å²

Compound: NC1(c2ccccc2Cl)CCCCC1=O (centres undefined) [Ketamine-M nor]
collision cross section (N2) [1]: 147.1 Å²

Compound: CN1C[C@@H]2c3ccccc3Oc3ccc(Cl)cc3[C@H]2C1 [Asenapine]
collision cross section (N2) [1]: 167.6 Å²

Compound: OCCOCCN1CCN(C(c2ccccc2)c2ccc(Cl)cc2)CC1 (centres undefined) [Hydroxyzine]
collision cross section (N2) [1]: 197.4 Å²

Compound: COc1ccc2c(c1)c(CC(=O)O)c(C)n2C(=O)c1ccc(Cl)cc1 [Indomethacin]
collision cross section (N2) [1]: 179.5 Å²

Compound: O=C1CC(=O)N(c2ccccc2)c2cc(Cl)ccc2N1 [Clobazam-M nor]
collision cross section (N2) [1]: 161.7 Å²

Compound: OC(CCN1CCCCC1)(c1ccccc1)C1C[C@H]2C=C[C@@H]1C2 (some centres undefined) [Biperiden]
collision cross section (N2) [1]: 177.7 Å²

Second part, the molecule after the results:

collision cross section (N2) [1]: 182.2 Å²
Compound: CCOC(=O)C1=C(C)NC(C)=C(C(=O)OC)C1c1cccc([N+](=O)[O-])c1 (centres undefined) [Nitrendipine]

collision cross section (N2) [1]: 187.2 Å²
Compound: CCOC(=O)[C@H](CCc1ccccc1)N[C@@H](C)C(=O)N1CCC[C@H]1C(=O)O [Enalapril]

collision cross section (N2) [1]: 219.8 Å²
Compound: CCCCc1oc2ccccc2c1C(=O)c1cc(I)c(OCCNCC)c(I)c1 [Amiodarone-M N-Desethyl]

collision cross section (N2) [1]: 197 Å²
Compound: CCOC(=O)[C@H](CCc1ccccc1)N[C@@H](C)C(=O)N1[C@H](C(=O)O)C[C@@H]2CCC[C@@H]21 [Ramipril]

collision cross section (N2) [1]: 196.2 Å²
Compound: CCCCOc1cc(C(=O)NCCN(CC)CC)c2ccccc2n1 [Dibucaine]

collision cross section (N2) ([2]; [M+H]+): 294.9 Å² | collision cross section (N2) ([2]; [M+NH4]+): 295.8 Å² | collision cross section (N2) ([2]; [M+Na]+): 292.4 Å² | collision cross section (N2) ([2]; [M-H]-): 283.7 Å² | collision cross section (N2) ([3]; [M-H]-): 283.7 Å²
Compound: CCCCCCCCCC/C=C\CCCCCCCCCC(=O)O[C@H](COC(=O)CCCCCCCCCCC)COP(=O)(O)O[C@H]1C(O)C(O)C(O)[C@@H](O)C1O (some centres undefined) [PI(34:1)]

collision cross section (N2) ([2]; [M+Na]+): 307.1 Å² | collision cross section (N2) ([2]; [M-H]-): 298.2 Å² | collision cross section (N2) ([3]; [M-H]-): 297.1 Å²
Compound: CCCCC/C=C\C/C=C\CCCCCCCCCCCC(=O)O[C@H](COC(=O)CCCCCCC/C=C\C/C=C\CCCCC)COP(=O)(O)O[C@H]1C(O)C(O)C(O)[C@@H](O)C1O (some centres undefined) [PI(40:4)]

collision cross section (N2) ([2]; [M+H]+): 289.3 Å² | collision cross section (N2) ([2]; [M+NH4]+): 290.2 Å² | collision cross section (N2) ([2]; [M+Na]+): 286 Å² | collision cross section (N2) ([3]; [M+Na]+): 284 Å² | collision cross section (N2) ([3]; [M-H]-): 275.6 Å²
Compound: CC/C=C\C/C=C\C/C=C\C/C=C\C/C=C\C/C=C\CCC(=O)O[C@H](COC(=O)CCCCCCCCCCCCCCC)COP(=O)(O)OC[C@@H](O)CO [PG(38:6)]

collision cross section (N2) ([2]; [M+H]+): 270 Å² | collision cross section (N2) ([2]; [M-H]-): 261.1 Å² | collision cross section (N2) ([3]; [M+H]+): 271.8 Å²
Compound: CCCCC/C=C\C/C=C\CCCCCCCC(=O)O[C@H](CO/C=C\CCCCCCCCCCCCCC)COP(=O)(O)OCCN [PE(p34:2)]

collision cross section (N2) ([2]; [M+H]+): 296.2 Å² | collision cross section (N2) ([3]; [M+H]+): 293.3 Å²
Compound: CCCCC/C=C\C/C=C\C/C=C\C/C=C\CCCCCC(=O)O[C@H](COC(=O)CCCCCCC/C=C\C/C=C\CCCCC)COP(=O)([O-])OCC[N+](C)(C)C [PC(40:6)]

collision cross section (N2) ([2]; [M+H]+): 280.2 Å² | collision cross section (N2) ([2]; [M-H]-): 270.6 Å² | collision cross section (N2) ([3]; [M+H]+): 278.3 Å² | collision cross section (N2) ([3]; [M+Na]+): 279.4 Å² | collision cross section (N2) ([3]; [M-H]-): 268.7 Å²
Compound: CC/C=C\C/C=C\C/C=C\C/C=C\C/C=C\CCCC(=O)O[C@H](CO/C=C\CCCCCCCCCCCCCCCC)COP(=O)(O)OCCN [PE(p38:5)]

collision cross section (N2) ([2]; [M-H]-): 277.1 Å² | collision cross section (N2) ([3]; [M+H]+): 287.9 Å²
Compound: CCCCC/C=C\C/C=C\C/C=C\CCCCCCC(=O)O[C@H](CO/C=C\CCCCCCCCCCCCCCCCCC)COP(=O)(O)OCCN [PE(p40:3)]

collision cross section (N2) ([2]; [M+H]+): 267.5 Å² | collision cross section (N2) ([2]; [M+NH4]+): 267.8 Å² | collision cross section (N2) ([2]; [M+Na]+): 266.5 Å² | collision cross section (N2) ([3]; [M-H]-): 253.4 Å²
Compound: CCCCC/C=C\C/C=C\CCCCCCCC(=O)O[C@H](COC(=O)CCCCCCCCCCCCCCC)COP(=O)(O)O [PA(34:2)]

collision cross section (N2) ([2]; [M+H]+): 274.9 Å² | collision cross section (N2) ([2]; [M+Na]+): 279.9 Å² | collision cross section (N2) ([2]; [M-H]-): 266.1 Å² | collision cross section (N2) ([3]; [M+H]+): 273.7 Å² | collision cross section (N2) ([3]; [M-H]-): 266.7 Å²
Compound: CCCC/C=C\C/C=C\CCCCCCCC(=O)OC[C@H](COP(=O)(O)OCCN)OC(=O)CCCCCCC/C=C\CCCCCCCCC [PE(36:3)]

collision cross section (N2) ([2]; [M+HCOO]-): 294.4 Å² | collision cross section (N2) ([2]; [M+Na]+): 298.5 Å² | collision cross section (N2) ([3]; [M+CH3COO]-): 296.3 Å² | collision cross section (N2) ([3]; [M+H]+): 291.2 Å²
Compound: CCCCC/C=C\C/C=C\C/C=C\CCCCC(=O)OC[C@H](COP(=O)([O-])OCC[N+](C)(C)C)OC(=O)CCCCCCCCC/C=C\CCCCCCCC [PC(38:4)]

collision cross section (N2) ([2]; [M+NH4]+): 277.2 Å² | collision cross section (N2) ([3]; [M-H]-): 261.6 Å²
Compound: CC/C=C\C/C=C\C/C=C\C/C=C\CCCCC(=O)OC[C@H](COP(=O)(O)O)OC(=O)CCCCCCCCC/C=C\CCCCCCCC [PA(38:5)]

collision cross section (N2) ([2]; [M-H]-): 266.2 Å² | collision cross section (N2) ([3]; [M+Na]+): 275.1 Å²
Compound: CCCC/C=C\CCCCCCCC(=O)OC[C@H](COP(=O)(O)OC[C@@H](O)CO)OC(=O)CCCCCCCCC/C=C\C/C=C\CCCCC [PG(34:3)]

collision cross section (N2) ([2]; [M+HCOO]-): 241.4 Å² | collision cross section (N2) ([2]; [M+H]+): 237.9 Å² | collision cross section (N2) ([2]; [M+Na]+): 240.8 Å² | collision cross section (N2) ([3]; [M+H]+): 235.7 Å² | collision cross section (N2) [4]: 240.7 Å²
Compound: CCCCCCCCCCCCCCCCCC(=O)O[C@H](CO)COP(=O)([O-])OCC[N+](C)(C)C [LPC(18:0)]

collision cross section (N2) ([2]; [M+H]+): 292.1 Å² | collision cross section (N2) ([2]; [M+Na]+): 288.8 Å² | collision cross section (N2) ([3]; [M+Na]+): 285.9 Å² | collision cross section (N2) ([3]; [M-H]-): 276.5 Å²
Compound: CC/C=C\C/C=C\C/C=C\C/C=C\CCCCC(=O)OC[C@H](COP(=O)(O)OC[C@@H](O)CO)OC(=O)CCCCCCCCC/C=C\CCCCCCCC [PG(38:5)]
